We go through 27 compounds from BindingDB's records for doi:10.1021/jm010999g (2002).

Assay [1] has as its target T1, ATP-binding cassette sub-family C member 9 (Rattus norvegicus, UniProt Q63563). Briefly: Binding affinity to the sulfonylurea receptor 2A (SUR2A) in purified membranes of rat-heart myocytes.
For assay [2], the target named is T1, ATP-binding cassette sub-family C member 9. Put plainly: Binding affinity towards Sulfonylurea receptor 2B (SUR2B) in cultured rat aortic smooth muscle cells (SMC).

Each structure is given as a SMILES string.

T1 sequence (Q63563 whole entry): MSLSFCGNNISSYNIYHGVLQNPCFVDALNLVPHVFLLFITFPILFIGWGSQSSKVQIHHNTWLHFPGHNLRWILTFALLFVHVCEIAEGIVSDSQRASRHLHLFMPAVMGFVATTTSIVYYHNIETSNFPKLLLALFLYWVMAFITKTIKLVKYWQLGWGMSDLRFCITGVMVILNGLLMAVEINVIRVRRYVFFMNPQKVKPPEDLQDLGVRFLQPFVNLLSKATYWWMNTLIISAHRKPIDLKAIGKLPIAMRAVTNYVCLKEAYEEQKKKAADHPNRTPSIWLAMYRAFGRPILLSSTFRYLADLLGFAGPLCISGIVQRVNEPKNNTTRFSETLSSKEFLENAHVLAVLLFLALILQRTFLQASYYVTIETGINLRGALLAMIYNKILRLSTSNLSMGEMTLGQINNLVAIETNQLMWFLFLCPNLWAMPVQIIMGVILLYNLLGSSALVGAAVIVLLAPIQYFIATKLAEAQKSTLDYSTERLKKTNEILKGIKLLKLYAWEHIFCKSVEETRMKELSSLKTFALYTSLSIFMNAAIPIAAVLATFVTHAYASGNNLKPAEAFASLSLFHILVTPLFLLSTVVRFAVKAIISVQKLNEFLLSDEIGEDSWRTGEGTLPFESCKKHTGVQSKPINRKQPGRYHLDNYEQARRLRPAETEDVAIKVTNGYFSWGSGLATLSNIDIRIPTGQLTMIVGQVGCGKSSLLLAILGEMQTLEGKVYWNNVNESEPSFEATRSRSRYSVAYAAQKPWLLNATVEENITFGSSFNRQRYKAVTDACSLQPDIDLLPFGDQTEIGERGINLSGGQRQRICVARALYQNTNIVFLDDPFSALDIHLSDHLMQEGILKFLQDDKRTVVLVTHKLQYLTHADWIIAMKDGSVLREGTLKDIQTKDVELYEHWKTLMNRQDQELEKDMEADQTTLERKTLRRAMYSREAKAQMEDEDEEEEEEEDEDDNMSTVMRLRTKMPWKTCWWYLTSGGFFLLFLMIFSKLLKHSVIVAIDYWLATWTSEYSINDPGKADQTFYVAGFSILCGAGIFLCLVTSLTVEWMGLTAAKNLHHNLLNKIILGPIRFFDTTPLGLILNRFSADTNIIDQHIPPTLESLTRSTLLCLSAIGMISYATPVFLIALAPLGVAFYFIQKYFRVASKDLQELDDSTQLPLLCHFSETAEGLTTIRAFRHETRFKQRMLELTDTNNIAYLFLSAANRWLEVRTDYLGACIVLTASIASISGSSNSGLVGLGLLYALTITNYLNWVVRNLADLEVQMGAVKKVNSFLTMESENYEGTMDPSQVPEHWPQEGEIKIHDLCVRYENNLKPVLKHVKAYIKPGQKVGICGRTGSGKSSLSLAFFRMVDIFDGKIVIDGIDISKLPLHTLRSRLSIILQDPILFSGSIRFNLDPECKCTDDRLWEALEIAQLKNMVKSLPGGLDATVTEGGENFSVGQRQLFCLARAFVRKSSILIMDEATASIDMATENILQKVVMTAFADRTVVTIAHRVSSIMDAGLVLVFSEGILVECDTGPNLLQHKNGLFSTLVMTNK

Take `CCN(CC)S(=O)(=O)c1ccc2c(c1)C(n1ccccc1=O)=CC(C)(C)O2`: the Kd (as a rule, the constant that tells how readily two partners part at equilibrium) in assay [1] stood at 355 nM; in assay [2], 115 nM.

`CC1(C)C=C(n2ccccc2=O)c2cc(S(=O)(=O)Nc3ccccc3F)ccc2O1`: the Kd in assay [1] worked out at 23 nM; in assay [2] it was 11 nM.

With `CC1(C)C=C(n2ccccc2=O)c2cc(C#N)ccc2O1` [Bimakalim], the Kd in assay [1] was 56 nM; in assay [2], 10 nM.

`CC1(C)C=C(n2ccccc2=O)c2cc(S(=O)(=O)N=[N+]=[N-])ccc2O1` returned a Kd in assay [1] of 15 nM.

For the compound `CCNS(=O)(=O)c1ccc2c(c1)C(n1ccccc1=O)=CC(C)(C)O2`, the Kd in assay [1] worked out at 200 nM; in assay [2] it was 100 nM.

As to `CC1(C)C=C(n2ccccc2=O)c2cc(S(=O)(=O)F)ccc2O1`, the Kd in assay [1] was 15 nM; in assay [2], 9.8 nM.

On to `[2H]c1c([2H])c([2H])c(NS(=O)(=O)c2ccc3c(c2)C(n2ccccc2=O)=CC(C)(C)O3)c([2H])c1[2H]`, for which the Kd came to 19 nM in assay [1] and 7.4 nM in assay [2].

As for `CC1(C)C=C(n2ccccc2=O)c2cc(S(=O)(=O)Nc3ccccc3)ccc2O1`, the Kd stood at 15 nM in assay [1] and 8.9 nM in assay [2].

Regarding `CC1(C)Oc2ccc(S(=O)(=O)c3ccccc3)cc2[C@@H](N2CCCC2=O)[C@@H]1O` [Rilmakalim], the figures for the dissociation constant (Kd) in assay [1] and in assay [2] were 27 nM and 7.1 nM, respectively.

Take `CC1(C)C=C(n2ccccc2=O)c2cc(S(=O)(=O)Nc3ccccc3Br)ccc2O1`: the dissociation constant Kd worked out at 138 nM in assay [1] and 23 nM in assay [2].

For the compound `CC1(C)C=C(n2ccccc2=O)c2cc(S(=O)(=O)NCCO)ccc2O1`, the Kd in assay [1] was found to be 692 nM; in assay [2], 457 nM.

On to `CC(C)NS(=O)(=O)c1ccc2c(c1)C(n1ccccc1=O)=CC(C)(C)O2`, for which the Kd in assay [1] came out at 6610 nM; in assay [2], 8320 nM.

`CNS(=O)(=O)c1ccc2c(c1)C(n1ccccc1=O)=CC(C)(C)O2`: the equilibrium dissociation constant (Kd) came out at 66 nM in assay [1] and 55 nM in assay [2].

For `CC1(C)C=C(n2ccccc2=O)c2cc(S(=O)(=O)NC3CCCC3)ccc2O1`, the figures for the Kd in assay [1] and in assay [2] were 1410 nM and 537 nM, respectively.

In the case of `CC1(C)C=C(n2ccccc2=O)c2cc(S(=O)(=O)Nc3ccc([N+](=O)[O-])cc3)ccc2O1`, the Kd in assay [1] worked out at 4470 nM; in assay [2], 1590 nM.

Turning to `CC1(C)C=C(n2ccccc2=O)c2cc(S(=O)(=O)Oc3ccccc3)ccc2O1`, the values for the Kd in assay [1] and in assay [2] were 17 nM and 2.8 nM, respectively.

As to `CC1(C)C=C(n2ccccc2=O)c2cc(S(=O)(=O)c3ccccc3)ccc2O1`, the Kd in assay [1] is 138 nM; in assay [2], 65 nM.

Take `CC1(C)C=C(n2ccccc2=O)c2cc(S(=O)(=O)N3CCOCC3)ccc2O1`: the results for the Kd in assay [1] and in assay [2] were 363 nM and 186 nM, respectively.

On to `COc1ccc(NS(=O)(=O)c2ccc3c(c2)C(n2ccccc2=O)=CC(C)(C)O3)cc1`, for which the Kd was 537 nM in assay [1] and 245 nM in assay [2].

As for `CC1(C)C=C(n2ccccc2=O)c2cc(S(=O)(=O)NCc3ccccc3)ccc2O1`, the results for the Kd in assay [1] and in assay [2] were 5250 nM and 1000 nM, respectively.

Compound `CC1(C)C=C(n2ccccc2=O)c2cc(S(=O)(=O)NC(=O)NC3CCCCC3)ccc2O1` yielded a Kd in assay [1] of 5620 nM.

Regarding `CC1(C)C=C(n2ccccc2=O)c2cc(S(=O)(=O)Nc3ccc(Br)cc3)ccc2O1`, the values for the Kd in assay [1] and in assay [2] were 1700 nM and 224 nM, respectively.

Consider `CC1(C)C=C(n2ccccc2=O)c2cc(S(=O)(=O)NC(=O)Nc3ccccc3)ccc2O1`, for which, in assay [1], binding was put at a Kd of 2820 nM.

For the compound `CC1(C)C=C(n2ccccc2=O)c2cc(S(N)(=O)=O)ccc2O1`, the Kd in assay [1] was determined as 316 nM; in assay [2], 115 nM.

As to `CC1(C)C=C(n2ccccc2=O)c2cc(S(=O)(=O)Nc3ccc(C#N)cc3)ccc2O1`, the Kd in assay [1] amounted to 3160 nM; in assay [2], 759 nM.

With `CN(C)S(=O)(=O)c1ccc2c(c1)C(n1ccccc1=O)=CC(C)(C)O2`, the results for the Kd in assay [1] and in assay [2] were 123 nM and 63 nM, respectively.

In the case of `CN(c1ccccc1)S(=O)(=O)c1ccc2c(c1)C(n1ccccc1=O)=CC(C)(C)O2`, the Kd in assay [1] came out at 20 nM; in assay [2], 13 nM.
